The values that follow are results of earlier work, collected in US8877698B2, “Method and composition for disinfecting hard surfaces” (priority 2001, dated 2014).

This data set has as its system poliovirus.

For the compound `CCO` [ethanol], the “minimum concentration required to inactivate poliovirus” value is 70% and the “virucidal action against poliovirus” value is recorded as “little virucidal action”.
